Measurements published in the supplement of paper PMC10307832.

Tests used:
Assay in all cases: relative viability (nuclei count vs DMSO), 5 days (fraction); higher = more cells survive
AZD6482 + Tozasertib = compound: Cc1cc([C@@H](C)Nc2ccccc2C(=O)O)c2nc(N3CCOCC3)cc(=O)n2c1 [AZD6482] + Cc1cc(Nc2cc(N3CCN(C)CC3)nc(Sc3ccc(NC(=O)C4CC4)cc3)n2)n[nH]1 [Tozasertib] (partner 0.1 µM)
Outline: (§1)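 One day after seeding in 1536-well plates, lung cancer cell lines were dosed by pin tool. Dosing was either single-drug or a fixed anchor-drug dose plus five library-drug doses (not always all listed) in √10 steps. After 5 days, nuclei were stained in one fix-and-stain step and counted on 4× images, and relative viability is the nuclei count of treated wells over that of vehicle wells, given as the median of duplicate plates.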

[1] = compound: COc1cc2nc(N3CCCN(C)CC3)nc(NC3CCN(Cc4ccccc4)CC3)c2cc1OC + CC(=O)Nc1cccc(-n2c(=O)n(C3CC3)c(=O)c3c(Nc4ccc(I)cc4F)n(C)c(=O)c(C)c32)c1 [Trametinib] (partner 0.02 µM)
Outline: as §1

AZD6482 + Navitoclax = compound: Cc1cc([C@@H](C)Nc2ccccc2C(=O)O)c2nc(N3CCOCC3)cc(=O)n2c1 [AZD6482] + CC1(C)CCC(c2ccc(Cl)cc2)=C(CN2CCN(c3ccc(C(=O)NS(=O)(=O)c4ccc(N[C@H](CCN5CCOCC5)CSc5ccccc5)c(S(=O)(=O)C(F)(F)F)c4)cc3)CC2)C1 [Navitoclax] (partner 0.5 µM)
Outline: as §1

[2] = compound: COc1cc2nc(N3CCCN(C)CC3)nc(NC3CCN(Cc4ccccc4)CC3)c2cc1OC + CC(C)C[C@H](NC(=O)[C@H](Cc1ccccc1)NC(=O)c1cnccn1)B(O)O [Bortezomib] (partner 0.002 µM)
Outline: as §1

UMC-11
relative viability (AZD6482 + Tozasertib; first compound 0.08 µM): 0.19 | relative viability (AZD6482 + Tozasertib; first compound 0.253 µM): 0.209 | relative viability (AZD6482 + Tozasertib; first compound 0.8 µM): 0.186 | relative viability (AZD6482 + Tozasertib; first compound 2.53 µM): 0.23 | relative viability (AZD6482 + Tozasertib; first compound 8 µM): 0.201 | relative viability ([1]; first compound 0.2 µM): 0.741 | relative viability ([1]; first compound 0.6325 µM): 0.729 | relative viability ([1]; first compound 2 µM): 0.836 | relative viability ([1]; first compound 6.325 µM): 0.517 | relative viability (AZD6482 + Navitoclax; first compound 0.08 µM): 0.331 | relative viability (AZD6482 + Navitoclax; first compound 0.253 µM): 0.329 | relative viability (AZD6482 + Navitoclax; first compound 0.8 µM): 0.313 | relative viability (AZD6482 + Navitoclax; first compound 2.53 µM): 0.309 | relative viability (AZD6482 + Navitoclax; first compound 8 µM): 0.275 | relative viability ([2]; first compound 0.2 µM): 0.737 | relative viability ([2]; first compound 0.6325 µM): 0.778 | relative viability ([2]; first compound 2 µM): 0.71 | relative viability ([2]; first compound 6.325 µM): 0.594
